In patent US20070028400A1, “Skin and/or hair treatment agent containing tetrasubstituted cyclohexene compounds” (priority 2003, published 2007):

Tested on: primary normal human melanocytes
Assay: Melanogenesis assay (C14-tyrosine incorporation), 3 days incubation
Type: cell-based
Details: measured as C14-tyrosine incorporation, n=3
Experimental: By way of example, the test for the compound acetyl-retinyliminoethanol is given.
A melanogenesis assay was carried out after incubation for 3 days of primary normal human melanocytes with test substance compared to control. The numbers given in the table indicate the melanogenesis rates based on the untreated control (=100%) (measured as C14-tyrosine incorporation).

**Q.** For `CC(=O)OCC/N=C/C=C(C)/C=C/C=C(C)/C=C/C1=C(C)CCCC1(C)C` [acetyl-retinyliminoethanol, 2-{[(1E,2E,4E,6E,8E)-3,7-dimethyl-9-(2,6,6-trimethylcyclohex-1-en-1-yl)nona-2,4,6,8-tetraen-1-ylidene]amino}ethyl acetate], which “melanogenesis rate based on the untreated control (=100%), Average” value (0.1 μg/ml test substance) is on record?
**A.** 117%

**Q.** What about the “melanogenesis rate based on the untreated control (=100%), Average” value (1 μg/ml test substance) of the same molecule?
**A.** 253%
